According to patent US6699989B1, “Antiviral and antimicrobial guanidine or biguanidine derivatives” (priority 2000, dated 2004):
Values after ≈ are worked out from the molar mass of the structure shown. Where two headings read alike, the source gives them in different places.

How the values were obtained:
HIV-1 [1] = assay: PBMC assay, virus production by reverse transcriptase activity; assay type: cell-based
Description: Method 2: PBMC Assay Method (Peripheral Blood Mononuclear cell)—Description
This assay addresses the issue of providing a rationale for further evaluation of the compound by providing evidence of in vitro anti-HIV activity against a low passage clinical strain of HIV-1. These fresh human peripheral blood mononuclear cell assays use fresh human cells obtained from the American Red Cross from uninfected, normal human donors. Mononuclear cells from these blood samples are isolated by centrifugation and infected with low passage clinical strains of HIV-1 which have been obtained by culture of blood cells from HIV-infected patients with uninfected PBMCs. Since the PBMCs are not killed by HIV infection, endpoint quantification is performed by measurement of virus production in each well by reverse transcriptase assay or p24 ELISA. These assays provide evidence that the test compounds will have efficacy against viruses, which will likely be encountered in patients without genetic changes, introduced by passage in cell culture.
Thus, PBMCs assay measures the amount of virus released from the infected cells into the tissue culture supernatant. The activity of the test compound is measured by its ability to reduce the level of virus production relative to the virus controls (cells+virus with no added compound). In PBMC culture we use reverse transcriptase activity in the supernatant to quantify the amount of virus production from the infected cells. Endpoint quantification is performed at 6 days post-infection.
Fresh human peripheral blood lymphocytes (PBL) are isolated from voluntary Red Cross donors, seronegative for HIV and HBV. Leukophoresed blood is diluted 1:1 with Dulbecco's phosphate buffered saline (PBS), layered over 14 mL of Ficoll-Hypaque density gradient in a 50 mL centrifuge tube. Tubes are then centrifuged for 30 minutes at 600×g. Banded PBLs are gently aspirated from the resulting interface and subsequently washed 2× with PBS by low speed centrifugation. […] After incubation, PBLs are centrifuged and reset in RPMI 1640 with 15% FBS, 2 mM L-glutamine, 100 U/mL. penicillin, 100 ug/mL streptomycin, 10 ug/mL gentamycin, and 20 U/mL recombinant human IL-2. PBLs are maintained in this medium at a concentration of 1-2×10E6/mL with bi-weekly medium changes, until use in assay protocol. For the PBL assay, PHA-P stimulated cells from at least two normal donors are pooled, set in fresh medium at 2×10E6/mL and plated in the interior wells of a 96 well round bottom microplate at 50 μL/well. Test drug dilutions are prepared at a 2× concentration in microtiter tubes and 100 μL of each concentration is placed in appropriate wells in a standard format. 50 μL of a predetermined dilution of virus stock is placed in each test well. Wells with cells and virus alone are used for virus control. Separate plates are identically set without virus for drug cytotoxicity studies using an XTT assay system.
In the standard PBL assay (MOI: 0.2), the assay was ended on day 7 following collection of cell free supernatant samples for reverse transcriptase activity assay. In the low MOI PBL assay (MOI: 0.02), supernatant samples were collected on day 6, day 11, and day 14 post-infection and analyzed for RT activity.

PBMCs = assay: Toxicity to PBMC, XTT; assay type: cell-based, human
HIV-1 [2] = test system: HIV-1
Description: (§1) This is a cytoprotection assay that uses the T-lymphoblastoid tumor cell line CEM-SS and laboratory adapted strains of HIV-1. Upon infection with HIV, the CEM-SS cells form syncytia and eventually die, producing large amounts of progeny virus over the course of 4-6 days at the standard multiplicity of infection (0.01). The antiviral assay measures the ability of a given compound to inhibit the HIV-induced cell killing. […] The activity of the compound is evaluated by measuring cell viability at 6 days post-infection and comparing the viability to that obtained in cell control (cells only), virus control (cells and virus only) and toxicity control (cells and compound only) wells.
(§2) Efficacy of the compound in cell culture is measured by increased cell viability in CEM-SS assays or reduction in virus production in PBMC assays. The data obtained yields a dose response curve which can be evaluated to determine doses which yield 25%, 50% and 95% protection from HIV-induced cell killing or virus production. […] These concentrations are reported as the TC25, TC50 and TC95 values. The ratio of toxicity to efficacy constitutes the therapeutic index TC50/IC50.
(§3) CEM-SS cells assay measures the ability of the compound to inhibit HIV induced cell killing. The cells are stained at 6 days post-infection with the tetrazolium dye XTT which is converted to a colored formazan product by the mitochondria of viable cells. Protection from cell killing afforded by the test compound is measured by comparison to both cell controls and virus controls. Cell killing in this system is directly related to the amount of virus produced by the infected cells and XTT-formazan production is proportional to the number of viable cells in each well. Toxicity of the compound to the target cells is measured in parallel.
(§4) CEM-SS cells (or other established human cell line used in these experiments) were passaged in T-150 flasks for use in the assay. On the day preceding the assay, the cells were split 1:2 to assure they would be in an exponential growth phase at time of infection. On the day of assay the cells were washed twice with tissue culture medium and resuspended in fresh tissue culture medium. Total cell and viability counting was performed using hemacytometer and trypan blue dye exclusion. Cell viability was greater than 95% for the cells to be utilized in the assay. The cells were pelleted and resuspended at 2.5×10^4 cells per ml in tissue culture medium. Cells were added to the drug-containing plates in a volume of 50 μl.
(§5) A pretitered aliquot of virus was removed from the freezer (−80° C.) and allowed to thaw slowly to room temperature in a biological safety cabinet. The virus was resuspended and diluted into tissue culture medium such that the amount of virus added to each well in a volume of 50 μl will be the amount determined to give complete cell killing at 6 days post-infection. In general the virus pools produced with the IIIB isolate of HIV required the addition of 5 μl of virus per well.
(§6) Each plate contained cell control wells (cells only), virus control wells (cells plus virus), drug toxicity control wells (cells plus drug only), drug colorimetric control wells (drug only) as well as experimental wells (drug plus cells plus virus).
(§7) After 6 days of incubation at 37° C. in a 5% CO2 incubator the test plates were analyzed by staining with the tetrazolium dye XTT. XTT-tetrazolium is metabolized by the mitochondrial enzymes of metabolically active cells to a soluble formazan product, allowing the rapid quantitative analysis of the inhibition of HIV-induced cell killing by anti-HIV test substances. On day 6 post-infection plates were removed from the incubator and observed.

HIV-1 [3] = assay: microbe, parasite or virus in culture; conditions: Human immunodeficiency virus 1, CEM-SS
Description: as §1, §2, §3, §4, §5, §6, §7

N=C(NCCCCCCNC(=N)NC(=N)N1CCN(c2cc3c(cc2F)c(=O)c(C(=O)O)cn3C2CC2)CC1)NC(=N)N1CCN(c2cc3c(cc2F)c(=O)c(C(=O)O)cn3C2CC2)CC1 [BVS-10A]
RT ACTIVITY MEAN (HIV-1 [1]; 0.01 μg/ml, ROJO in PBMC): 6532.7 cpm
RT ACTIVITY MEAN (HIV-1 [1]; 0.032 μg/ml, ROJO in PBMC): 7531.7 cpm
RT ACTIVITY MEAN (HIV-1 [1]; 0.1 μg/ml, ROJO in PBMC): 5919.0 cpm
RT ACTIVITY MEAN (HIV-1 [1]; 0.32 μg/ml, ROJO in PBMC): 5899.7 cpm
RT ACTIVITY MEAN (HIV-1 [1]; 1 μg/ml, ROJO in PBMC): 6546.7 cpm
RT ACTIVITY MEAN (HIV-1 [1]; 3.2 μg/ml, ROJO in PBMC): 2327.0 cpm
RT ACTIVITY MEAN (HIV-1 [1]; 10 μg/ml, ROJO in PBMC): 274.0 cpm
RT ACTIVITY MEAN (HIV-1 [1]; 32 μg/ml, ROJO in PBMC): 68.0 cpm
RT ACTIVITY MEAN (HIV-1 [1]; 100 μg/ml, ROJO in PBMC): 49.3 cpm
IC50 (HIV-1 [1]; Human immunodeficiency virus 1, PBMC, PBMCs, read-out: 50% inhibition of virus replication): 2.5 µg/mL (≈ 2.74 µM)
activity at 0.01 µg/mL (HIV-1 [1]; Human immunodeficiency virus 1, 0.01 μg/ml, ROJO in PBMC, read-out: RT ACTIVITY % VC): 90.8%
activity at 0.032 µg/mL (HIV-1 [1]; Human immunodeficiency virus 1, 0.032 μg/ml, ROJO in PBMC, read-out: RT ACTIVITY % VC): 105%
activity at 0.1 µg/mL (HIV-1 [1]; Human immunodeficiency virus 1, 0.1 μg/ml, ROJO in PBMC, read-out: RT ACTIVITY % VC): 82.2%
activity at 0.32 µg/mL (HIV-1 [1]; Human immunodeficiency virus 1, 0.32 μg/ml, ROJO in PBMC, read-out: RT ACTIVITY % VC): 82%
activity at 1 µg/mL (HIV-1 [1]; Human immunodeficiency virus 1, 1 μg/ml, ROJO in PBMC, read-out: RT ACTIVITY % VC): 91%
activity at 3.2 µg/mL (HIV-1 [1]; Human immunodeficiency virus 1, 3.2 μg/ml, ROJO in PBMC, read-out: RT ACTIVITY % VC): 32.3%
activity at 10 µg/mL (HIV-1 [1]; Human immunodeficiency virus 1, 10 μg/ml, ROJO in PBMC, read-out: RT ACTIVITY % VC): 3.8%
activity at 32 µg/mL (HIV-1 [1]; Human immunodeficiency virus 1, 32 μg/ml, ROJO in PBMC, read-out: RT ACTIVITY % VC): 0.9%
activity at 100 µg/mL (HIV-1 [1]; Human immunodeficiency virus 1, 100 μg/ml, ROJO in PBMC, read-out: RT ACTIVITY % VC): 0.7%
IC50 (HIV-1 [1]; Human immunodeficiency virus 1, ROJO in PBMC, RT activity, read-out: IC50): 2.54 µg/mL (≈ 2.78 µM)
concentrations at which active in PBMCs (HIV-1 [1]; PBMCs): greater than 3.2 μg/mL
TOXICITY % CC (PBMCs; 0.01 μg/ml, PBMC): 103.2%
TOXICITY VALUES (XTT O.D. @ 450/650 nm) MEAN (PBMCs; 0.01 μg/ml, PBMC): 3.415 O.D.
TOXICITY % CC (PBMCs; 0.032 μg/ml, PBMC): 103.6%
TOXICITY VALUES (XTT O.D. @ 450/650 nm) MEAN (PBMCs; 0.032 μg/ml, PBMC): 3.426 O.D.
TOXICITY % CC (PBMCs; 0.1 μg/ml, PBMC): 97.1%
TOXICITY VALUES (XTT O.D. @ 450/650 nm) MEAN (PBMCs; 0.1 μg/ml, PBMC): 3.214 O.D.
TOXICITY % CC (PBMCs; 0.32 μg/ml, PBMC): 100.9%
TOXICITY VALUES (XTT O.D. @ 450/650 nm) MEAN (PBMCs; 0.32 μg/ml, PBMC): 3.339 O.D.
TOXICITY % CC (PBMCs; 1 μg/ml, PBMC): 96.2%
TOXICITY VALUES (XTT O.D. @ 450/650 nm) MEAN (PBMCs; 1 μg/ml, PBMC): 3.181 O.D.
TOXICITY % CC (PBMCs; 3.2 μg/ml, PBMC): 103.5%
TOXICITY VALUES (XTT O.D. @ 450/650 nm) MEAN (PBMCs; 3.2 μg/ml, PBMC): 3.424 O.D.
TOXICITY % CC (PBMCs; 10 μg/ml, PBMC): 108.3%
TOXICITY VALUES (XTT O.D. @ 450/650 nm) MEAN (PBMCs; 10 μg/ml, PBMC): 3.583 O.D.
TOXICITY % CC (PBMCs; 32 μg/ml, PBMC): 97.3%
TOXICITY VALUES (XTT O.D. @ 450/650 nm) MEAN (PBMCs; 32 μg/ml, PBMC): 3.220 O.D.
TOXICITY % CC (PBMCs; 100 μg/ml, PBMC): 51.2%
TOXICITY VALUES (XTT O.D. @ 450/650 nm) MEAN (PBMCs; 100 μg/ml, PBMC): 1.695 O.D.
50% inhibition of cell growth (PBMCs; PBMC cultures): approximately 100 μg/mL
TC50 (PBMCs; PBMC, XTT): TC50 (μg/ml) = >100
toxicity in PBMCs (PBMCs; at 100 μg/mL): Toxicity was detected
% RED. IN VIRAL CPE (HIV-1 [2]; 0.00032 uG/mL, CEM-SS, HIV1 RF): 3%
ANTIVIRAL TEST VALUES MEAN O.D. (HIV-1 [2]; 0.00032 uG/mL, CEM-SS, HIV1 RF): 0.038 O.D.
% RED. IN VIRAL CPE (HIV-1 [2]; 0.001 uG/mL, CEM-SS, HIV1 RF): 4%
ANTIVIRAL TEST VALUES MEAN O.D. (HIV-1 [2]; 0.001 uG/mL, CEM-SS, HIV1 RF): 0.049 O.D.
% RED. IN VIRAL CPE (HIV-1 [2]; 0.0032 uG/mL, CEM-SS, HIV1 RF): 1%
ANTIVIRAL TEST VALUES MEAN O.D. (HIV-1 [2]; 0.0032 uG/mL, CEM-SS, HIV1 RF): 0.009 O.D.
% RED. IN VIRAL CPE (HIV-1 [2]; 0.01 uG/mL, CEM-SS, HIV1 RF): 4%
ANTIVIRAL TEST VALUES MEAN O.D. (HIV-1 [2]; 0.01 uG/mL, CEM-SS, HIV1 RF): 0.042 O.D.
% RED. IN VIRAL CPE (HIV-1 [2]; 0.032 uG/mL, CEM-SS, HIV1 RF): 7%
ANTIVIRAL TEST VALUES MEAN O.D. (HIV-1 [2]; 0.032 uG/mL, CEM-SS, HIV1 RF): 0.083 O.D.
% RED. IN VIRAL CPE (HIV-1 [2]; 0.1 uG/mL, CEM-SS, HIV1 RF): 2%
ANTIVIRAL TEST VALUES MEAN O.D. (HIV-1 [2]; 0.1 uG/mL, CEM-SS, HIV1 RF): 0.021 O.D.
% RED. IN VIRAL CPE (HIV-1 [2]; 0.32 uG/mL, CEM-SS, HIV1 RF): 4%
ANTIVIRAL TEST VALUES MEAN O.D. (HIV-1 [2]; 0.32 uG/mL, CEM-SS, HIV1 RF): 0.051 O.D.
% RED. IN VIRAL CPE (HIV-1 [2]; 1 uG/mL, CEM-SS, HIV1 RF): 9%
ANTIVIRAL TEST VALUES MEAN O.D. (HIV-1 [2]; 1 uG/mL, CEM-SS, HIV1 RF): 0.103 O.D.
% RED. IN VIRAL CPE (HIV-1 [2]; 3.2 uG/mL, CEM-SS, HIV1 RF): 2%
ANTIVIRAL TEST VALUES MEAN O.D. (HIV-1 [2]; 3.2 uG/mL, CEM-SS, HIV1 RF): 0.025 O.D.
% RED. IN VIRAL CPE (HIV-1 [2]; 10 uG/mL, CEM-SS, HIV1 RF): 11%
ANTIVIRAL TEST VALUES MEAN O.D. (HIV-1 [2]; 10 uG/mL, CEM-SS, HIV1 RF): 0.123 O.D.
% RED. IN VIRAL CPE (HIV-1 [2]; 32 uG/mL, CEM-SS, HIV1 RF): 100%
ANTIVIRAL TEST VALUES MEAN O.D. (HIV-1 [2]; 32 uG/mL, CEM-SS, HIV1 RF): 1.515 O.D.
% RED. IN VIRAL CPE (HIV-1 [2]; 32 uG/mL, CEM-SS, HIV1 RF, listed as BVS10A): 100%
% RED. IN VIRAL CPE (HIV-1 [2]; 100 uG/mL, CEM-SS, HIV1 RF): 100%
ANTIVIRAL TEST VALUES MEAN O.D. (HIV-1 [2]; 100 uG/mL, CEM-SS, HIV1 RF): 1.717 O.D.
% RED. IN VIRAL CPE (HIV-1 [2]; 100 uG/mL, CEM-SS, HIV1 RF, listed as BVS10A): 100%
IC95 (HIV-1 [2]; CEM-SS cells): 30 µg/mL (≈ 32.9 µM)
IC 25% (HIV-1 [2]; CEM-SS, HIV1 RF): 12.00 UG/mL
IC 95% (HIV-1 [2]; CEM-SS, HIV1 RF): 30.00 UG/mL
IC50 (HIV-1 [3]): 16.6 µg/mL (≈ 18.2 µM)
IC50 (HIV-1 [3]; read-out: 50% inhibition of cell killing): 12 µg/mL (≈ 13.1 µM)
IC50 (HIV-1 [3]; read-out: calculated IC50): 16.6 µg/mL (≈ 18.2 µM)
